The source made the active and inactive calls. The rule behind the calls is not given here.

The series relates to CCRIS mutagenicity, Ames/micronucleus/aberration tests. In words: CCRIS mutagenicity studies.
Setting [1] is: Test System: AMES SALMONELLA TYPHIMURIUM, Strain/Indicator: TA98, Metabolic Activation: NONE, Method: STANDARD PLATE.
Where [2] appears, read: Test System: AMES SALMONELLA TYPHIMURIUM, Strain/Indicator: TA100, Metabolic Activation: NONE, Method: STANDARD PLATE.

`O=C(CCCl)N=c1sn(C(=O)CCCl)c2ccccc12`: the mutagenic call (Test System: AMES SALMONELLA TYPHIMURIUM, Strain/Indicator: TA100, Metabolic Activation: S-9, Method: STANDARD PLATE) was “inactive; negative”.
Turning to `[Pt+2].[S-]CCCCl.[S-]CCCCl`, the mutagenic call by setting is: (Test System: AMES SALMONELLA TYPHIMURIUM, Strain/Indicator: TA92, Metabolic Activation: NONE, Method: STANDARD PLATE) “inactive; negative”; under setting [1], “inactive; negative”; under setting [2], “active; positive”; (Test System: AMES SALMONELLA TYPHIMURIUM, Strain/Indicator: TA2410, Metabolic Activation: NONE, Method: STANDARD PLATE) “active; positive”.
For the molecule `Cc1cccc(N=Nc2ccc(N(C)C)cc2)c1`, the mutagenic call (Test System: AMES SALMONELLA TYPHIMURIUM, Strain/Indicator: TA98, Metabolic Activation: RAT, LIVER, S-9, KC500 OR PHENOBARBITAL, Method: LIQUID SUSPENSION) was “active; positive”; the mutagenic call (Test System: AMES SALMONELLA TYPHIMURIUM, Strain/Indicator: TA98, Metabolic Activation: RAT, LIVER, S-9, N-BENZYLIMIDAZOLE, Method: PREINCUBATION) is “active; positive”; the mutagenic call (Test System: AMES SALMONELLA TYPHIMURIUM, Strain/Indicator: TA100, Metabolic Activation: RAT, LIVER, S-9, KC500 OR PHENOBARBITAL, Method: LIQUID SUSPENSION) is “active; positive”; the mutagenic call (Test System: AMES SALMONELLA TYPHIMURIUM, Strain/Indicator: TA1538, Metabolic Activation: RAT, LIVER, S-9, PHENOBARBITAL, Method: STANDARD PLATE) was “active; positive”; the mutagenic call (Test System: UDS RODENT HEPATOCYTES, Strain/Indicator: THY INCORP (NON-S-PHASE), Method: AUTORADIOGRAPHY) is “active; positive”; the mutagenic call (Test System: UDS RODENT HEPATOCYTES, Strain/Indicator: THY INCORP (NON-S-PHASE), Method: LIQUID SCINTILLATION COUNTING) was “active; positive”.
Consider `C=C1C[C@@]23CC[C@H]4[C@@](C)(CCC[C@@]4(C)C(=O)O[C@@H]4O[C@H](CO)[C@@H](O)[C@H](O)[C@H]4O)[C@@H]2CC[C@]1(O[C@@H]1O[C@H](CO)[C@@H](O)[C@H](O)[C@H]1O[C@@H]1O[C@H](CO)[C@@H](O)[C@H](O)[C@H]1O)C3`, for which the mutagenic call was “inactive; negative” (Test System: AMES SALMONELLA TYPHIMURIUM, Strain/Indicator: TA97, Metabolic Activation: NONE, Method: PREINCUBATION); “inactive; negative” (Test System: AMES SALMONELLA TYPHIMURIUM, Strain/Indicator: TA97, Metabolic Activation: RAT, LIVER, S-9, PCB, Method: PREINCUBATION); “inactive; negative” (Test System: AMES SALMONELLA TYPHIMURIUM, Strain/Indicator: TA98, Metabolic Activation: RAT, LIVER, S-9, PCB, Method: PREINCUBATION); “active; positive” (Test System: AMES SALMONELLA TYPHIMURIUM, Strain/Indicator: TA98, Metabolic Activation: RAT, LIVER, S-9, SODIUM PHENOBARBITAL AND 5,6-BENZOFLAVONE, Method: PREINCUBATION); “inactive; negative” (Test System: AMES SALMONELLA TYPHIMURIUM, Strain/Indicator: TA100, Metabolic Activation: NONE, Method: PREINCUBATION); “inactive; negative” (Test System: AMES SALMONELLA TYPHIMURIUM, Strain/Indicator: TA100, Metabolic Activation: RAT, LIVER, S-9, PCB, Method: PREINCUBATION). Besides, the mutagenic call was “inactive; negative” (Test System: AMES SALMONELLA TYPHIMURIUM, Strain/Indicator: TA100, Metabolic Activation: RAT, LIVER, S-9, SODIUM PHENOBARBITAL AND 5,6-BENZOFLAVONE, Method: PREINCUBATION); “inactive; negative” (Test System: AMES SALMONELLA TYPHIMURIUM, Strain/Indicator: TA102, Metabolic Activation: NONE, Method: PREINCUBATION); “inactive; negative” (Test System: AMES SALMONELLA TYPHIMURIUM, Strain/Indicator: TA102, Metabolic Activation: RAT, LIVER, S-9, PCB, Method: PREINCUBATION); “inactive; negative” (Test System: AMES SALMONELLA TYPHIMURIUM, Strain/Indicator: TA104, Metabolic Activation: NONE, Method: PREINCUBATION); “inactive; negative” (Test System: AMES SALMONELLA TYPHIMURIUM, Strain/Indicator: TA104, Metabolic Activation: RAT, LIVER, S-9, PCB, Method: PREINCUBATION); “inactive; negative” (Test System: AMES SALMONELLA TYPHIMURIUM, Strain/Indicator: TM677, Metabolic Activation: RAT, LIVER, S-9, AROCLOR 1254, Method: PREINCUBATION).
For `FC(F)C(F)C(F)(F)F` (stereo not given), the mutagenic call (Test System: AMES SALMONELLA TYPHIMURIUM, Strain/Indicator: TA97, Metabolic Activation: NONE, Method: CLOSED GLASS VESSEL) is “inactive; negative”; the mutagenic call (Test System: AMES SALMONELLA TYPHIMURIUM, Strain/Indicator: TA97, Metabolic Activation: RAT LIVER S-9, AROCLOR 1254, Method: CLOSED GLASS VESSEL) is “inactive; negative”; the mutagenic call (Test System: AMES SALMONELLA TYPHIMURIUM, Strain/Indicator: TA98, Metabolic Activation: NONE, Method: CLOSED GLASS VESSEL) is “inactive; negative”; the mutagenic call (Test System: AMES SALMONELLA TYPHIMURIUM, Strain/Indicator: TA98, Metabolic Activation: RAT LIVER S-9, AROCLOR 1254, Method: CLOSED GLASS VESSEL) is “inactive; negative”; the mutagenic call (Test System: AMES SALMONELLA TYPHIMURIUM, Strain/Indicator: TA100, Metabolic Activation: NONE, Method: CLOSED GLASS VESSEL) is “inactive; negative”; the mutagenic call (Test System: AMES SALMONELLA TYPHIMURIUM, Strain/Indicator: TA100, Metabolic Activation: RAT LIVER S-9, AROCLOR 1254, Method: CLOSED GLASS VESSEL) was “inactive; negative”. The mutagenic call (Test System: AMES SALMONELLA TYPHIMURIUM, Strain/Indicator: TA1535, Metabolic Activation: NONE, Method: CLOSED GLASS VESSEL) is “inactive; negative”; the mutagenic call (Test System: AMES SALMONELLA TYPHIMURIUM, Strain/Indicator: TA1535, Metabolic Activation: RAT LIVER S-9, AROCLOR 1254, Method: CLOSED GLASS VESSEL) was “inactive; negative”; the mutagenic call (Test System: ESCHERICHIA COLI, Strain/Indicator: WP2 UVR A, Metabolic Activation: NONE, Method: CLOSED GLASS VESSEL) was “inactive; negative”; the mutagenic call (Test System: ESCHERICHIA COLI, Strain/Indicator: WP2 UVR A, Metabolic Activation: RAT LIVER S-9, AROCLOR 1254, Method: CLOSED GLASS VESSEL) was “inactive; negative”.
On to `O[C@@H]1C=CC=C[C@H]1O`, for which the mutagenic call is “inactive; negative” (Test System: AMES SALMONELLA TYPHIMURIUM, Strain/Indicator: TA97, Metabolic Activation: NONE, Method: STANDARD PLATE); “inactive; negative” under setting [1]; “inactive; negative” (Test System: AMES SALMONELLA TYPHIMURIUM, Strain/Indicator: TA98, Metabolic Activation: RAT, LIVER, S-9, AROCLOR 1254, Method: STANDARD PLATE); “inactive; negative” under setting [2]; “inactive; negative” (Test System: AMES SALMONELLA TYPHIMURIUM, Strain/Indicator: TA1535, Metabolic Activation: NONE, Method: STANDARD PLATE); “active; positive” (Test System: AMES SALMONELLA TYPHIMURIUM, Strain/Indicator: TA1535, Metabolic Activation: RAT, LIVER, S-9, AROCLOR 1254, Method: STANDARD PLATE). Further, the mutagenic call (Test System: CHINESE HAMSTER V-79, Strain/Indicator: V-79/6-THIOGUANINE, Metabolic Activation: NONE) is “inactive; negative”.

Source of the values: PubChem BioAssay AID1259407 (Chemical Carcinogenesis Research Information System (CCRIS), 2018).
